Entries after “also recorded” stand apart in the source; their conditions may differ. Like-named read-outs stand apart in the source and are kept apart here.

The source of these data is US11684594B2, “Antifungal prophylaxis for cornea” (PRESIDENT AND FELLOWS OF HARVARD COLLEGE, priority 2020, dated 2023).

Data set [1] concerns Candida albicans (ATCC 24433), Fusarium solani (ATCC MYA-3636), and Aspergillus fumigatus (ATCC MYA-3626). In words: In vitro antifungal testing, statements not resolved by species. The format is cell-based. The following applies: species not resolved; for Efficacy/toxicity ratio, overall rank: fungicidal activity vs HCLE cytotoxicity; for Antifungal / fungicidal activity in vitro: agents at eye-drop or stated concentration. The protocol: Several commonly used antibiotics were tested in vitro against Candida albicans (ATCC 24433), Fusarium solani (ATCC MYA-3636), and Aspergillus fumigatus (ATCC MYA-3626). Time kill activity and minimum inhibitory concentrations (MIC) were determined. Also the antiseptics benzalkonium chloride (BAK), povidone-iodine (PI), and ionic liquids (ILs) consisting of a 1:1 mixture of choline and undecanoic acid, were tested. Toxicity was assayed in vitro on cultures of human corneal epithelial cells, subjected to Trypan Blue staining. Adhesion and tissue invasion experiments were also carried out, with or without γ-irradiation, and by analysis with fluorescent microscopy.
(§1) In Vitro Time Kill Tests. Microtiter time kill tests were carried out in vitro according to the published CLSI methods (M27-A2).^22

Data set [2] has as its system human corneal-limbal epithelial cells (HCLE). The format is cell-based. To be noted: for Cytotoxicity / toxicity: HCLE cells, post-exposure Trypan blue staining; for Trypan Blue staining (% stained area per image) compared to control treatment TX-100 (1%): FIG. 2A, confluent HCLE monolayers, 1 min of contact, BAK 40 µg/mL, PI 0.5%, #3-IL 10 mM. As to the method:
In Vitro Toxicity Tests. Trypan Blue assays for toxicity of various antimicrobial agents were conducted using human corneal cells. Telomerase-immortalized human corneal-limbal epithelial cells (HCLE) were thawed at 37° C. and quickly transferred to a sterile T75 cell culture flask. Cells were grown in keratinocyte serum-free medium (KSFM; Gibco™; Thermofisher Scientific; Waltham, Mass.) supplemented with bovine pituitary extract (25 μg/mL), epidermal growth factor (0.2 ng/mL), calcium chloride (0.4 mM CaCl2[…]2H2O; Sigma-Aldrich; St Louis, Mo.), and 1× penicillin/streptomycin, at 37° C. with 5% CO2. Once cells were confluent, they were passaged following trypsinization in 12- or 24-well plates. After incubation with Trypsin-EDTA (0.05%, Gibco™; Thermofisher Scientific; Waltham, Mass.) for 5-10 min at 37° C. with 5% CO2, the reaction was stopped with an equivalent volume of neutralizing medium (Dulbecco's Modified Eagle Medium/Nutrient Mixture F-12, DMEM/F-12, with HEPES and 10% newborn calf serum), centrifuged at 5,000×g for 5 min, and re-suspended in supplemented KSFM. Experiments were performed using cells from passages 31 to 36. Once cells reached confluency, they were gently washed twice with DMEM/F-12 (Gibco™; Thermofisher Scientific; Waltham, Mass.) and incubated with an antimicrobial agent for 1 min (n=2 wells per group). Controls included 1×PBS (diluent) and 1% TX-100 (cell permeabilizer). After exposure to various agents, the cells were washed three times with DMEM/F-12, incubated with 0.2% Trypan Blue for 5 min, and washed again three times with DMEM/F-12. The remaining media was aspirated and replaced with 1×PBS for imaging. Macro-images of the culture plate were taken with a smartphone camera (iPhone 7; Apple Inc.; Cupertino, Calif.), and 10× images were taken with an inverted microscope (Eclipse TS100; Nikon; Tokyo, Japan) attached to a digital camera (SPOT Insight Fire Wire; Diagnostic Instruments Inc.; Sterling Heights, Mich.). 3-6 images/well were obtained in clockwise direction from areas immediately adjacent to the center of the well, and without overlapping areas. Images were quantified in ImageJ Fiji software to determine the amount of cell uptake of Trypan Blue. Macros were created from the Color Threshoulder plugin (G. Landini) to batch process the images after color matching in Photoshop to reference images per treatment group. % Area of Trypan Blue staining per image was calculated as follows: (area of blue/area of all)×100%.

For data set [3], the system named is A. fumigatus (ATCC MYA-3626). Kind of data set: In vitro time kill test, filamentous fungi. In kind it is cell-based, Aspergillus fumigatus. To be noted: for Ratio fungicidal activity/cytotoxicity: FIG. 3, # of log10 reduction / fold-change in Trypan Blue staining vs PBS (HCLE), 1 min contact, A. fumigatus. The protocol: as §1
(§2) ii) Filamentous fungi: The antibiotic solutions, at either full or 1/10 strength, and antiseptics were inoculated with approximately 2×10^5-2×10^6 conidia/mL of F. solani or A. fumigatus in RPMI broth (buffered with MOPS at pH 7.0; Mediatech; Manassas, Va.) for 0-15 min. Conidia were collected by flooding the agar plates with 10 mL of sterile 1×PBS and 0.1% Tween® 20 (Sigma Aldrich; St Louis, Mo.). The solution was transferred to a sterile conical tube, and particles were allowed to settle for 10 min. The resulting supernatant was transferred to a new sterile conical tube and centrifuged at 3,000×g for 5 min. The supernatant was discarded, the remaining pellet was re-suspended in RPMI broth (buffered with MOPS at pH 7.0), and the OD600 was adjusted to 1.0. In the final test solutions, at each time point the inoculum was diluted 1:10 and neutralized in Dey-Engley neutralizing broth (Sigma-Aldrich; St Louis, Mo.). Neutralized cultures were then serially diluted and plated on Sabouraud dextrose agar (two serial 1:10 dilutions, 0.1 mL each) in technical duplicate. Viable conidia were counted and recorded following aerobic incubation for 48 hrs (or as soon as growth was visible) at 25-35° C.
(§3) To investigate the fungicidal activity of various antibiotics and antimicrobials, the reduction in fungal load after short contact times (0-15 min, FIGS. 2-3), to account for the effect of rapid dilution by the tear film, as occurs in patients after topical instillation, was measured.^23 The detection limit for time kill tests was approximately 100 CFU/mL for C. albicans, and 1 CFU/mL for F. solani and A. fumigatus (corresponding to a ≥3 log difference from the starting inoculum). 20-300 cells were considered a reliable counting range per dilution, and values were averaged when more than one dilution in the same plate were within this range.

Another data set relates to C. albicans (ATCC 24433). In words: In vitro time kill test, yeast. The format is cell-based, Candida albicans. To be noted: for Reduction in viable colonies: FIG. 1A, full strength; for Ratio fungicidal activity/cytotoxicity: FIG. 3, # of log10 reduction / fold-change in Trypan Blue staining vs PBS (HCLE), 1 min contact, C. albicans. The protocol: as §1
The inoculum was prepared by adjustment of the optical density at 600 nm (OD600) to 1.0 (corresponding to approximately 1×10^6 CFU/mL), and dilution by 1:10 in the final solution. To confirm the starting inoculum size, yeasts were plated […] and colonies counted after growth for 24 hrs at 37° C. The test solutions were neutralized at each time point by ten-fold dilution in Dey-Engley neutralizing broth (Sigma-Aldrich; St Louis, Mo.), and serially track diluted (PMID: 9343684) on Sabouraud dextrose agar (six serial 1:10 dilutions, 0.01 mL each) in technical triplicate. Colonies were counted and recorded following aerobic incubation for 24 hrs at 37° C.
as §3

Data set [4] concerns F. solani (ATCC MYA-3636). In words: In vitro time kill test, filamentous fungi. In kind it is cell-based, Fusarium solani. As to the method:
as §1, §2, §3

The conditions of data set [5]: cited from earlier work.
Where [6] appears, read: FIG. 1C, without BAK, MOX 5 mg/mL, GAT 5 mg/mL, CHL 5 mg/mL, VAN 14 mg/mL, within 120 min.
Where [7] appears, read: FIG. 1B, tenth dilution, within 120 min.
Where [8] appears, read: full strength (10,000 u/mL PMB, 40 g/mL BAK, 1 mg/mL TMP), within 120 min.

For `CCCCCCCCCCCCCC(=O)NCCCN(C)C` [Aldox, myristamidopropyl dimethylamine], in data set [1], the “Efficacy/toxicity ratio, overall rank” value is given as “rank lower than PI”; the “Antifungal / fungicidal activity in vitro” value is “rapid and broad fungicidal activity”. Further, in data set [2], the “Cytotoxicity / toxicity” value is given as “high cytotoxicity”.

On to `N=C(NCCCCCCNC(=N)NC(=N)Nc1ccc(Cl)cc1)NC(=N)Nc1ccc(Cl)cc1.O=C(O)[C@H](O)[C@@H](O)[C@H](O)[C@H](O)CO.O=C(O)[C@H](O)[C@@H](O)[C@H](O)[C@H](O)CO` [CDG, chlorhexidine digluconate], for which, in data set [1], the “Efficacy/toxicity ratio, overall rank” value is “rank lower than PI”; the “Antifungal / fungicidal activity in vitro” value was “rapid and broad fungicidal activity; also recorded: effective”. Also, the Ratio fungicidal activity/cytotoxicity result in data set [3] is “lowest ratio”. Moreover, the “Cytotoxicity / toxicity” value in data set [2] was “high cytotoxicity; also recorded: too toxic”. For the same compound, the “Contact time required for the same effect as PI and the novel IL (≥3 log10 reduction)” value with C. albicans (ATCC 24433) (FIG. 2B, CDG 0.05%) is reported as 5 min.

Regarding `O=C(N[C@H](CO)[C@H](O)c1ccc([N+](=O)[O-])cc1)C(Cl)Cl` [CHL, chloramphenicol], in data set [1], the “Antifungal / fungicidal activity in vitro” value is recorded as “no effect; also recorded: ineffective”. Further, in the data set on C. albicans (ATCC 24433) (setting [6]), the “Fungicidal activity (words)” value is listed as “fungicidal activity was not observed; also recorded: no effect”.

Regarding `COc1c(N2CCNC(C)C2)c(F)cc2c(=O)c(C(=O)O)cn(C3CC3)c12` (centres unmarked) [GAT, gatifloxacin], in data set [1], the “Antifungal / fungicidal activity in vitro” value is “no effect”. The “Fungicidal activity (words)” value in the data set with C. albicans (ATCC 24433) (setting [6]) is “fungicidal activity was not observed; also recorded: no effect”.

Turning to `COc1c(N2C[C@@H]3CCCN[C@@H]3C2)c(F)cc2c(=O)c(C(=O)O)cn(C3CC3)c12` [MOX, moxifloxacin], the “Antifungal / fungicidal activity in vitro” value in data set [1] was “no effect”. Moreover, the “Fungicidal activity (words)” value in the data set with C. albicans (ATCC 24433) (setting [6]) is recorded as “no effect”.

Turning to `COc1cc(Cc2cnc(N)nc2N)cc(OC)c1OC` [TMP, trimethoprim], the “Antifungal / fungicidal activity in vitro” value in data set [1] is on record as “no effect; also recorded: ineffective”. In addition, the “Fungicidal activity (words)” value was “fungicidal activity was not observed” with C. albicans (ATCC 24433) (setting [7]) and “no effect” in the data set on C. albicans (ATCC 24433) (setting [8]).

On to `CN[C@H](CC(C)C)C(=O)N[C@H]1C(=O)N[C@@H](CC(N)=O)C(=O)N[C@H]2C(=O)N[C@H]3C(=O)N[C@H](C(=O)N[C@H](C(=O)O)c4cc(O)cc(O)c4-c4cc3ccc4O)[C@H](O)c3ccc(c(Cl)c3)Oc3cc2cc(c3O[C@@H]2O[C@H](CO)[C@@H](O)[C@H](O)[C@H]2O[C@H]2C[C@](C)(N)[C@H](O)[C@H](C)O2)Oc2ccc(cc2Cl)[C@H]1O` [VAN, vancomycin], for which the “Antifungal / fungicidal activity in vitro” value in data set [1] is on record as “no effect; also recorded: ineffective”. The “Fungicidal activity (words)” value with C. albicans (ATCC 24433) (setting [6]) is on record as “fungicidal activity was not observed; also recorded: no effect”.

In the case of benzalkonium chloride [BAK], the “Antifungal / fungicidal activity in vitro” value in data set [1] was “moderate antifungal activity”. Also, in data set [4] (FIG. 2C, within 1 min of contact, Polytrim full strength, PI 0.5%, BAK 40 µg/mL, #3-IL 10 mM), the “Reduction in viable conidia” value was determined as 2 log10. The “Trypan Blue staining (% stained area per image) compared to control treatment TX-100 (1%)” value in data set [2] is recorded as “significantly lower amount of staining”. Also, the “Reduction in viable colonies” value with C. albicans (ATCC 24433) (within 60 min) is reported as 2 log10; with C. albicans (ATCC 24433) (within 120 min), 3 log10. Besides, the “Fungicidal activity (words)” value in the data set with C. albicans (ATCC 24433) (setting [7]) was “fungicidal activity was not observed”; in the data set on C. albicans (ATCC 24433) (setting [8]) it was “comparable to the commercially prepared Polytrim®”. The Ratio fungicidal activity/cytotoxicity result in the data set on C. albicans (ATCC 24433) is listed as “lowest ratio”.

Take polymyxin B sulfate [PMB]: the “Antifungal / fungicidal activity in vitro” value in data set [1] is listed as “moderate antifungal activity”. For the same compound, the results for the “Reduction in viable colonies” value in the data set with C. albicans (ATCC 24433) (within 60 min) and in the data set on C. albicans (ATCC 24433) (within 120 min) were 2 log10 and 3 log10, respectively. Also, the “Fungicidal activity (words)” value in the data set on C. albicans (ATCC 24433) (setting [7]) is reported as “fungicidal activity was not observed”; in the data set on C. albicans (ATCC 24433) (setting [8]), “comparable to the commercially prepared Polytrim®”.

As to povidone iodine [PI], the “Efficacy/toxicity ratio, overall rank” value in data set [1] was “good efficacy/toxicity ratio; also recorded: ranks second after the novel IL”. The “Antifungal / fungicidal activity in vitro” value in data set [1] was “rapid and potent fungicidal activity”. Further, the Ratio fungicidal activity/cytotoxicity result in data set [4] (FIG. 3, # of log10 reduction / fold-change in Trypan Blue staining vs PBS (HCLE), 1 min contact, F. solani) was “highest ratios; also recorded: rank highest for F. solani”; in data set [3] it was “highest ratios”; with C. albicans (ATCC 24433) it was “highest ratios”. Further, the “Reduction in viable conidia” value in data set [3] (FIG. 2D, within 1 min, PI 0.5%, #3-IL 10 mM, CDG 0.05%) came to 2 log10. In data set [2], the “Trypan Blue staining (% stained area per image) compared to control treatment TX-100 (1%)” value is “significantly lower amount of staining”. Further, the entries for the “Tolerability on instillation into the eye” value in data set [5] (1% concentration) and in data set [5] (5% solution) were “well tolerated” and “acutely painful”, respectively. Besides, the “Tolerability / ocular safety (words)” value in data set [5] (clinical or long-term topical ocular use) is listed as “ocular inflammation from long-term use has occurred”. The “Reduction (kill of C. albicans)” value is reported as less than 1 log in the data set on C. albicans (ATCC 24433) (PI 0.01-0.1%, within 120 min) and no less than 3 log with C. albicans (ATCC 24433) (PI 0.5-1%, within 1 min).
